Experiments:
Assay in all cases: normalised response (% of control), CellTiter-Glo; higher = more viable cells (100 = DMSO, 0 = benzethonium chloride kill control)
Conditions in all cases: incubation time: 72 h
BT-474 [1] = tested on: BT-474
Protocol: (§1)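 DSRT, 72 h incubation, CellTox Green / CellTiter-Glo readout. Signal is normalised to DMSO and benzethonium chloride controls. Value is the normalised response at the highest dose.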

BT-549 = tested on: BT-549
Protocol: as §1

CAL-120 = tested on: CAL-120
Protocol: as §1

CAL-148 = tested on: CAL-148
Protocol: as §1

CAL-51 = tested on: CAL-51
Protocol: as §1

CAL-85-1 = tested on: CAL-85-1
Protocol: as §1

DU-4475 = tested on: DU-4475
Protocol: as §1

HCC1143 = tested on: HCC1143
Protocol: as §1

HCC1599 = tested on: HCC1599
Protocol: as §1

HCC1937 [2] = tested on: HCC1937
Protocol: as §1

HDQ-P1 = tested on: HDQ-P1
Protocol: as §1

Hs578T = tested on: Hs578T
Protocol: as §1

MCF-10A = tested on: MCF-10A
Protocol: as §1

MDA-MB-231 = tested on: MDA-MB-231
Protocol: as §1

MDA-MB-436 = tested on: MDA-MB-436
Protocol: as §1

MDA-MB-453 = tested on: MDA-MB-453
Protocol: as §1

MDA-MB-468 = tested on: MDA-MB-468
Protocol: as §1

MFM-223 = tested on: MFM-223
Protocol: as §1

SK-BR-3 [3] = tested on: SK-BR-3
Protocol: as §1

BT-474 [4] = tested on: BT-474; remark: listed apart in the source
Summary of the method: (§2)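 Plates were normalised with 0.1 % DMSO as 100 and a positive kill control as 0. Breast cancer cell lines in 20 µl suspension had been seeded into 384-well plates with compound at 5 concentrations in 10-fold steps over a compound-specific 10,000-fold range, incubated 72 h, and read for CellTox Green fluorescence (485/520 nm) followed by CellTiter-Glo luminescence. Each value is the normalised signal at a single concentration.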

HCC1937 [5] = tested on: HCC1937; remark: listed apart in the source
Summary of the method: as §2

SK-BR-3 [6] = tested on: SK-BR-3; remark: listed apart in the source
Summary of the method: as §2

Row | Structure (SMILES) | normalised response (BT-474 [4]) [%] | normalised response (HCC1937 [5]) [%] | normalised response (SK-BR-3 [6]) [%] | also measured
1 | CS(=O)(=O)OCCCCOS(C)(=O)=O [Busulfan] (100000 nM) |  |  |  | normalised response (BT-474 [1]): 89.9%; normalised response (BT-549): 107%; normalised response (CAL-120): 101%; normalised response (CAL-148): 106%; normalised response (CAL-51): 110%; normalised response (CAL-85-1): 104%; normalised response (DU-4475): 101%; normalised response (HCC1143): 104%; normalised response (HCC1599): 96%; normalised response (HCC1937 [2]): 98.8%; normalised response (HDQ-P1): 98.4%; normalised response (Hs578T): 102%; normalised response (MCF-10A): 102%; normalised response (MDA-MB-231): 101%; normalised response (MDA-MB-436): 104%; normalised response (MDA-MB-453): 102%; normalised response (MDA-MB-468): 108%; normalised response (MFM-223): 107%; normalised response (SK-BR-3 [3]): 111%
2 | CCS(=O)(=O)c1cccc(-c2cc(C(=O)NC3CCN(C)CC3)c(C)c3[nH]c4ncc(C)cc4c23)c1 [TAK-901] (100 nM) | 82 | 102 | 106 | 
3 | COc1ncc(-c2ccc3nccc(-c4ccnnc4)c3c2)cc1NS(=O)(=O)c1ccc(F)cc1F (1000 nM) |  |  |  | normalised response (BT-474 [1]): 43%; normalised response (BT-549): 13.9%; normalised response (CAL-120): 29.9%; normalised response (CAL-148): 6.28%; normalised response (CAL-51): 6.49%; normalised response (CAL-85-1): 21%; normalised response (DU-4475): 9.21%; normalised response (HCC1143): 23.6%; normalised response (HCC1599): 56.4%; normalised response (HCC1937 [2]): 24%; normalised response (HDQ-P1): 12.8%; normalised response (Hs578T): 16.1%; normalised response (MCF-10A): 18.8%; normalised response (MDA-MB-231): 33.7%; normalised response (MDA-MB-436): 39.4%; normalised response (MDA-MB-453): 7.5%; normalised response (MDA-MB-468): 12.7%; normalised response (MFM-223): 33.4%; normalised response (SK-BR-3 [3]): 19.1%
4 | Cn1cnc2c(F)c(Nc3ccc(Br)cc3F)c(C(=O)NOCCO)cc21 [MEK-162] (100 nM) | 88.8 | 95 | 101 | 
5 | COc1c(C)cnc(Cn2cnc3c(Cl)nc(N)nc32)c1C [BIIB021] (1000 nM) | 31.1 | 24.7 | 37.8 | 
6 | CCOc1cc2ncc(C#N)c(Nc3ccc(OCc4ccccn4)c(Cl)c3)c2cc1NC(=O)/C=C/CN(C)C [Neratinib] (100 nM) | 102 | 88 | 25 | 
7 | O=c1[nH]cc(F)c(=O)[nH]1 [Fluorouracil] (1000 nM) | 111 | 94.7 | 78.9 | 
8 | CS(=O)(=O)OCCCCOS(C)(=O)=O [Busulfan] (10000 nM) | 93.7 | 99.6 | 110 | 
9 | CC(=O)O[C@H]1C(=O)[C@@]2(C)[C@H]([C@H](OC(=O)c3ccccc3)[C@]3(O)C[C@H](OC(=O)[C@H](O)[C@@H](NC(=O)c4ccccc4)c4ccccc4)C(C)=C1C3(C)C)[C@]1(OC(C)=O)CO[C@@H]1C[C@@H]2O [Paclitaxel] (100 nM) | 36.7 | 66.2 | 10.2 | 
10 | COC1=C2C[C@@H](C)C[C@H](OC)[C@H](O)[C@@H](C)/C=C(\C)[C@H](OC(N)=O)[C@@H](OC)/C=C\C=C(/C)C(=O)NC(=CC1=O)C2=O [Geldanamycin] (1000 nM) | 101 | 89.8 | 87.1 | 
11 | Cn1c(=O)c(F)c(Nc2ccc(I)cc2F)c2c(=O)n(C[C@@H](O)CO)cnc21 [TAK-733] (100 nM) | 67.2 | 82.7 | 117 | 
12 | O=C(c1ccc(OCCN2CCCCC2)cc1)c1c(-c2ccc(O)cc2)sc2cc(O)ccc12 [Raloxifene] (1000 nM) | 102 | 100 | 105 | 
13 | C[C@@H]1C=C2C(=O)O[C@@H]3CC[C@H](C1)[C@]23O [Galiellalactone] (5000 nM) | 99.3 | 98.4 | 102 | 
14 | COC1=CC(c2cc3ccccc3[nH]2)=N/C1=C\c1[nH]c(C)cc1C [Obatoclax] (1000 nM) | 65.4 | 63.4 | 87 | 
15 | CC(C)(C)c1cc(NC(=O)Nc2ccc(-c3cn4c(n3)sc3cc(OCCN5CCOCC5)ccc34)cc2)no1 [Quizartinib] (100 nM) | 108 | 102 | 105 | 
16 | C[C@@]1(C(=O)Nc2ccc(F)nc2)CCCN1c1nc(Nc2cc(C3CC3)n[nH]2)c2cccn2n1 (1000 nM) | 62.8 | 86.9 | 67.9 | 
17 | O=c1[nH]c(=O)n([C@H]2C[C@H](O)[C@@H](CO)O2)cc1F [Floxuridine] (1000 nM) | 67.1 | 56.4 | 54.2 | 
18 | COc1ccc(C2=N[C@@H](c3ccc(Cl)cc3)[C@@H](c3ccc(Cl)cc3)N2C(=O)N2CCNC(=O)C2)c(OC(C)C)c1 [Nutlin-3] (1000 nM) | 98.9 | 102 | 109 | 
19 | COc1cccc2c1C(=O)c1c(O)c3c(c(O)c1C2=O)C[C@@](O)(C(C)=O)C[C@@H]3O[C@H]1C[C@H](N)[C@H](O)[C@H](C)O1 [Daunorubicin] (100 nM) | 82.5 | 98.2 | 91.9 | 

— the supplement of paper PMC4862054
